Data as given in patent US20100137342A1, “METHODS FOR TREATING VASCULAR […]” (Myriad Pharmaceuticals, Inc., priority 2007, published 2010).
Structures can show the parent of a compound that is named as a salt.

Assays:
[1] = Phase I clinical trial, weekly intravenous administration, subjects with refractory solid tumors; format: in vivo, human; conditions: Phase 1, i.v. weekly x3 per 4 week cycle, 0.3-3.3 mg/m^2
Procedure: An open-label, dose-escalating, multiple-dose study to define the safety, tolerability and phamacokinetics of weekly intravenous administration of (4-Methoxy-phenyl)-methyl-(2-methyl-quinazolin-4-yl)-amine hydrochloride was performed. A dosing schedule (each 4 week cycle) was performed for (4-Methoxy-phenyl)-methyl-(2-methyl-quinazolin-4-yl)-amine hydrochloride weekly for 3 weeks with no infusion on the fourth week of each cycle. Subjects with refractory solid tumors were enrolled in cohorts of 3. During Cycle 1, subjects were hospitalized during each infusion of (4-Methoxy-phenyl)-methyl-(2-methyl-quinazolin-4-yl)-amine hydrochloride and remained for observation and safety evaluation for approximately 24 hours following the end of the infusion. All subject had continuous telemetry for 2 hours prior to infusion, for 1-2 hour infusion and for 3 hours after the end of the infusion. Any clinically significant electrocardiographic (ECG) wave form abnormality was recorded and prolongation of the monitoring period extended at the discretion of the principal investigator.
Electrocardiograms were obtained prior to starting the infusion and within 30 minutes of the end of infusion for each infusino of the first cycle. Electrocardiograms on Day 1 were obtained in triplicate 5 minutes apart.
Neurocognitive assessments were made by administration of the Mini-Mental State Examination (MMSE), the Hopkins Verbal Learning and timed Grooved Pegboard tests before administration of the intravenous infusion and approximately 24 hours of the infusion at each weekly administration of the first cycle.
On days 1, 8, and 15 of each cycle, vital signs were obtained prior to the first dose, at 15, 30, and 60 minutes after the initiation of the infusion, and at 0.5, 1, 1.5, 2, and 4 hours after the end of the intravenous infusion. Vital signs at all time points beyond the start of the intravenous infusion included heart rate, blood pressure and respirations. Temperature ws measured at the end of the infusion and 4 hours later.
Individual subjects were allowed to continue on repeated weekly×3 administrations every 28 days with no dose increase provided there was no unacceptable toxicity or disease progression.
Tumor response was evaluated by response evaluation criteria in solid tumors (RECIST) criteria. To prevent sever hypersensitivity reactions due to Cremophor® EL, subjects were premedicated with oral dexamethasone (20 mg) administered approximately 12 and 6 hours before the intravenous infusion with (4-Methoxy-phenyl)-methyl-(2-methyl-quinazolin-4-yl)-amine hydrochloride, diphenhydramine (50 mg) or its equivalent administered intravenously 30-60 minutes before (4-Methoxy-phenyl)-methyl-(2-methyl-quinazolin-4-yl)-amine hydrochloride, and cimetidine (300 mg) or ranitidine (50 mg) administered intravenously 30-60 minutes before (4-Methoxy-phenyl)-methyl-(2-methyl-quinazolin-4-yl)-amine hydrochloride.

[2] = test system: human ovarian OVCAR-3 carcinoma cells; assay: Vascular disruption effects in human tumor xenograft model (tumor histology, hematoxylin and eosin); format: in vivo, mice; conditions: 24 hours after dosing; for blood vessels in the necrotic areas / tumor necrosis pattern (central area of the tumors): OVCAR-3 xenograft in Crl:Nu/Nu-nuBR mice, 10 mg/kg compound or 100 mg/kg CA4P, H&E sections
Procedure: (4-Methoxy-phenyl)-methyl-(2-methyl-quinazolin-4-yl)-amine hydrochloride was tested in a human tumor xenograft model to determine its vascular disruption effects. Crl:Nu/Nu-nuBR mice were grown and injected with 1×10^7 human ovarian OVCAR-3 carcinoma cells on the right flank and allowed to grow to various tumor volumes. Mice were then dosed with either vehicle, 100 mg/kg combretastatin A-4 phosphate (CA4P) (obtained from Toronto Research Chemicals, Ontario, Canada) or 10 mg/kg (4-Methoxy-phenyl)-methyl-(2-methyl-quinazolin-4-yl)-amine hydrochloride.
Animals were housed by groups in Positive Individual Ventilation (PIV) cages in flat-bottom cages (Thoren Caging Systems, Hazelton, Pa.) with no more than ten mice per cage. Cages contained autoclaved TEK-Fresh bedding (Harlan, Indianapolis, Ind.), which was changed every seven days. Environmental controls were set to maintain a temperature between 65° F. and 75° F. with a relative humidity of 30-70% in a 12:12 hour light:dark cycle. Animals were feed gamma-irradiated 2019 rodent chow ad libitum (Harlan, Indianapolis, Ind.). Tap water was sterilized using manufacture recommended conditions and supplied via an automated watering system ad libitum (Edstrom Industries, Waterford, Wis.). Twenty four hours after dosing, mice were sacrificed and tumors and hearts removed, fixed, sectioned and stained with hematoxylin and eosin Y (each obtained from Richard Allen Scientific, Kalamazoo, Mich.).

Compound	bradycardia [1]	dose limiting toxicity [1]	intratumor bleeding [1]	overall safety and tolerability [1]	peripheral cytotoxicity [1]	systolic blood pressure [1]	effects on cardiac conduction (PR, QRS or QTc) ([1]; ECG)	blood vessels in the necrotic areas [2]	tumor necrosis pattern (central area of the tumors) [2]	degree of necrosis compared with CA4P treated animals ([2]; OVCAR-3 xenograft, 10 mg/kg compound vs 100 mg/kg CA4P)
COc1ccc(N(C)c2nc(C)nc3ccccc23)cc1 [(4-Methoxy-phenyl)-methyl-(2-methyl-quinazolin-4-yl)-amine hydrochloride]	occasional episodes of bradycardia	vascular in nature, manifested by an acute coronary syndrome	incidences of intratumor bleeding	safe and tolerable	no evidence of cytotoxity peripherally	dose-related increase	no significant effects	consistently congested with perivascular hemorrhage	extensive necrosis with a rim of viable tumor tissue around the periphery	degree of necrosis appeared greater
COc1ccc(/C=C\c2cc(OC)c(OC)c(OC)c2)cc1OP(=O)(O)O [CA4P, combretastatin A-4 phosphate, reference compound]	–	–	–	–	–	–	–	consistently congested with perivascular hemorrhage	extensive necrosis with a rim of viable tumor tissue around the periphery	–
